Source: paper PMC10289085, “The cytotoxicity effect of 7-hydroxy-3,4-dihydrocadalene from Heterotheca inuloides and semisynthetic cadalenes derivates towards breast cancer cells: involvement of oxidative stress-mediated apoptosis” (PeerJ, 2023)
Entries after “also recorded” stand apart in the source; their conditions may differ.

Columns and labels:
[1] = test system: lipid peroxidation in MCF7 cells; test: TBARS assay: lipid peroxidation; type: cell-based, human; conditions: MCF7, 48 h
Procedure: (§1) Mechanical scraping was employed to collect adherent MCF7 cells after treatments. Then, cells were centrifugated (1,500 rpm for 5 min at 37 °C) and supernatants were removed. Pellets were lyzed adding lysis buffer (25 mM TrisHCl, pH 7.4, 150 mM NaCl, 1 mM EDTA, 0.1% Triton X-100, 1 mg/mL leupeptin, 0.5 mM PMSF and 1 mg/mL pepstatin) and put on ice for 20 min. Finally, cell lysates were centrifugated (2,500 rpm for 10 min at 4 °C) and supernatants were collected to following assays.
Total protein concentrations were measured as described by [Smith et al. (1985)]. BCA/CuSO4 reactive solution (1:20) was added to each cell lysates and incubated in the dark for 30 min at 37 °C. Absorbance was measured with a SPECTROstar Nano microplate reader (BMG Labtech, Ortenberg, Germany) at a wavelength of 550 nm.
Lipid peroxidation was measured colorimetrically as described by [Uchiyama & Mihara (1978)]. Cell pellets, stored at −80 °C, were thawed at room temperature and then, they were homogenized in thiobarbituric acid reactive substances (TBARS) solution (28.2 mM 2-TBA in 18.5 mL of TCA 16%-HCl 0.27 N). Then, the mixtures were heated for 10 min at 100 °C, and subsequently cooled in ice to stop the reaction. Supernatants of each sample were separated by centrifugation (3,000 rpm for 10 min at 4 °C) and immediately loaded into a SPECTROstar Nano microplate reader (BMG Labtech, Ortenberg, Germany) for absorbance measurement at 530 nm. TBARS values were expressed as nmol/mg protein.

MCF7 cells [2] = test: Cell morphology (Cytation 5 imaging); type: cell-based, human; conditions: MCF7, 48 h; compound at IC50, H2O2 1 mM
caspase 3 = test: Immunoblotting of caspase 3; type: cell-based, human; conditions: MCF7, 48 h; compound at IC50 concentration, H2O2 1.0 mM
Procedure: (§2) Western blot assays were performed using standard techniques. Primary antibodies were anti-caspase-3, Bcl-2 and GAPDH from Santa Cruz Biotechnology (Santa Cruz Biotechnology, Inc., Dallas, TX, USA). The secondary antibody was anti-rabbit IgG, HRP-linked (Antibody #7074; Cell Signaling Technology, Danvers, MA, USA).

caspase-9 = test: Caspase-9 activity assay (fluorometric, cell lysates); type: cell-based, human; conditions: MCF7, 48 h; for Caspase 9 activity compared to control cells: compound at IC50, H2O2 1.0 mM
Procedure: as §1
(§3) Fluorometric assays of caspase-3 and caspase-9 enzymes were performed in accordance with the instructions provided by ALEXIS Biochemicals kits (Enzo Life Sciences Inc., San Diego, CA, USA). This enzymatic assay was based on hydrolysis of the peptide substrates of caspases-3/9 (Ac-DEVD 20 μM and Ac-LEHD 20 μM, respectively) conjugated to a fluorochrome (7-amido-4-methylcoumarin or AMC) at the terminal carbon of Asp, resulting in the release of the fluorescent motif. Cell lysates (20 μg) were used for each treatment. After incubation for 1 h at 37 °C, fluorescence was determined using a FLx800 microplate reader at excitation and emission wavelengths of 380 and 460 nm, respectively.

[3] = test system: intracellular ROS in MCF7 cells; test: DCFH-DA assay: intracellular ROS detection; type: cell-based, human; conditions: compound at IC50 concentration, H2O2 1 mM
Procedure: Intracellular ROS were detected by fluorescent compound DCFH-DA. Cells were treated with 1.0 mM H2O2, IC50 (55.2 μM) and IC50/2 (27.6 μM) of 7-hydroxy-3,4-dihydrocadalene for 48 h. Then, culture media was replaced with DCFH-DA (20 μM dissolved in glucose 1.8 mg/mL PBS) per well and incubated in the dark for 30 min. DCF fluorescence intensity was measured using an FLx800 microplate fluorescence reader (Bio-Tek Instruments, Inc., Winooski, VT, USA) at 480 and 530 nm excitation and emission wavelengths, respectively ([LeBel, Ischiropoulos & Bondy, 1992]).

caspase-3 = test: Caspase-3 activity assay (fluorometric, cell lysates); type: cell-based, human; conditions: MCF7, 48 h
Procedure: as §1, §3

[4] = test system: MCF7 human breast cancer cells; test: MTT assay: cell viability; type: cell-based; conditions: for MCF7 cell viability: 0.1 to 100 µM, 24, 48 and 72 h; for IC50: MCF7, MTT
Procedure: MCF7 (#HTB-22) cell line, derived from human breast adenocarcinoma, was obtained from the American Type Culture Collection (ATCC®, Manassas, VA, USA). It was maintained under standard conditions: RPMI-1640, 2.0 g/L NaHCO3, supplemented with 10% FBS and gentamicin […].
(§4) Cells were treated with isolated compounds (0.1, 1, 5, 10, 25, 50 and 100 µM) for 24, 48 and 72 h. After treatments, culture media was replaced by MTT (100 μL) dissolved in RPMI media (0.33 mg/mL final concentration) per well and incubated at 37 °C with 5% CO2 for 1 h in dark. After incubating, supernatant was removed and replaced with DMSO to dissolve formazan crystals. Absorbance value was measured in a microplate reader (SPECTROstar Nano; BMG Labtech, Ortenberg, Germany) at 570 nm. IC25 and IC50 values were determined using GraphPad Prism 7.00 (GraphPad Software, La Jolla, CA, USA). Percentage of cell viability was calculated in comparison with control cells ([Mosmann, 1983]).

MCF7 cell line = test system: MCF7 cell line; design: method as in Rodríguez-Chávez et al. (2015b); conditions: ref Rodríguez-Chávez et al. (2015b); cited from earlier work
MCF7 cells [5] = test: Wound-healing assay: cell migration; type: cell-based, human; conditions: IC50 (55.24 μM), 24, 48 and 72 h
Procedure: Wound areas were monitored at four different times (0, 24, 48, and 72 h) using the Cytation 5 cell imager (BioTek Instruments, Inc., Winooski, VT, USA). To determine the migration rate of the cells, the wound areas were quantified using the ImageJ software, ([Schneider, Rasband & Eliceiri, 2012]). The variation between the percentage of cell migration (as a function of time) was calculated using the following formula:
%Migration=100−[(Areaofinjurytimet/Areaofinjurytimezero)(100)]

MCF7 cells [6] = test: Trypan blue dye exclusion assay: cell proliferation; type: cell-based, human; conditions: IC50 (55.24 μM)
Procedure: Cells were trypsinized, centrifuged and stained with trypan blue dye (0.4% w/v in PBS). The number of viable cells and dead cells were counted on a Neubauer hemocytometer under an inverted microscope. The percentage of cell proliferation was calculated by comparing with control cells.

[7] = test system: mitochondrial respiration of MCF7 cells; test: Cell respirometry (high resolution, O2k); type: cell-based, human; conditions: MCF7, IC50, 48 h
Procedure: The oxygen consumption experiments were performed using a high resolution respirometry equipment O2k meter (Oroboros Instruments, Innsbruck, Austria) described by [Aparicio-Trejo et al. (2019)]. The respiratory parameters were defined as: (A) Routine respiration, corresponding to oxygen consumption in presence only of cells in culture medium. (B) Leak of the respiration, corresponding to cellular oxygen consumption in presence of 15 μM oligomycin. (C) RCI corresponding to the ratio basal/leak. (D) Respiration attributable to OXPHOS (P) corresponding to: Routine-Leak. All parameters were corrected by subtracting non-mitochondrial respiration resulting from the addition of 15 μM rotenone and 15 μM antimycin A and normalized by cells number.

HEK 293 cells = test: MTT assay: cell viability in non-tumoral control cells; type: cell-based, human; conditions: non-tumoral cells from kidney, 72 h
Procedure: HEK 293 (CRL-1573) cell line, human embryonic kidney, was obtained from ATCC® (Manassas, VA, USA). It was grown in DMEM medium (Caisson Laboratories, Inc., Smithfield, UT, USA) with 10% v/v phenol red of inactivated FBS, 44 mM NaHCO3, 1 mM sodium pyruvate and penicillin 100 I.U.−100 μg/mL streptomycin−25 ng/mL amphotericin B, pH 7.4. Both cell lines were incubated at 37 °C and 5% CO2.
as §4

Bcl-2 = test: Immunoblotting of Bcl-2; type: cell-based, human; conditions: MCF7, 48 h, IC50 and IC50/2
Procedure: as §2

[8] = compound at IC50 concentration, H2O2 1.0 mM

In the case of OO [H2O2, hydrogen peroxide, reference compound], the “Lipid peroxidation levels (TBARS)” value [1, 8] is reported as 0.24 nmol/mg protein, the Cell morphology (MCF7 cells [2]) is reported as “morphological changes (cells are rounded off, adhesion capacity decreases, and membrane is blebbing) were observed” and the “Expression of caspase 3 (Western blot)” value (caspase 3) is reported as “increased”. The “Caspase 9 activity compared to control cells” value (caspase-9) was 115.08%, the “Intracellular ROS levels compared to control cells” value [3] was 194.9% and the “Caspase 3 activity compared to control cells” value (caspase-3; compound at IC50, H2O2 1.0 mM) was 136.25%.
For CC1=CC[C@H](C(C)C)c2cc(C)c(OC(=O)Nc3ccccc3)cc21 [7-(phenylcarbamate)-3,4-dihydrocadalene], the MCF7 cell viability ([4]; MTT) was “did not show a clear trend of MCF7 cell viability reduction; also recorded: lower or null cytotoxic potential; also recorded: not cytotoxic”.
With Cc1cc2c(C(C)C)ccc(C)c2cc1OC(=O)Nc1ccccc1 [7-(phenylcarbamate)-cadalene] the MCF7 cell viability ([4]; MTT) was “lower or null cytotoxic potential; also recorded: not cytotoxic” and the MCF7 cell growth ([4]; MTT, 10 and 50 µM at 72 h of exposure) was “slightly inhibited MCF7 cell growth”.
For CC1=CC[C@H](C(C)C)c2cc(C)c(O)cc21 [7-hydroxy-3,4-dihydrocadalene], the “Lipid peroxidation levels (TBARS)” value ([1]; IC50/2) was 0.23 nmol/mg protein, the “Lipid peroxidation levels (TBARS)” value [1, 8] was 0.52 nmol/mg protein and the Cell morphology (MCF7 cells [2]) was “morphological changes (cells are rounded off, adhesion capacity decreases, and membrane is blebbing) were observed”. The IC50 (MCF7 cell line) was 61.4 µM, the MCF7 migration (MCF7 cells [5]) was “significantly inhibits MCF7 migration” and the “Expression of caspase 3 (Western blot)” value (caspase 3) was “more evident”. For the same molecule, the Cell proliferation (MCF7 cells [6]) was “significantly reduced cell proliferation in a concentration and time dependent manner”, the “Caspase 9 activity” value (caspase-9; IC50/2 concentration) was “no effect” and the “Caspase 9 activity compared to control cells” value (caspase-9) was 118.42%. For the same molecule, the RCI [7] was “slightly reduction”, the “Intracellular ROS levels compared to control cells” value [3] was 182% and the “Effect on HEK 293 cell viability” value (HEK 293 cells) was “without effect”. The “Caspase 3 activity” value (caspase-3; IC50/2 concentration) was “no effect”, the IC50 ([4]; Homo sapiens, 48 h) was 55.2 µM and the IC50 ([4]; Homo sapiens, 72 h) was 52.8 µM. The MCF7 cell viability ([4]; MTT) was “reduced MCF7 cell viability in a concentration and time-dependent manner” and the “Bcl-2 levels (Western blot)” value (Bcl-2) was “Slightly differences of Bcl-2 levels were observed but not significant”.
CC/C(=C(\c1ccc(O)cc1)c1ccc(OCCN(C)C)cc1)c1ccccc1 [(Z)-4-hydroxytamoxifen, reference compound] gave an IC50 ([4]; 24 h, positive control) of 16.5 µM.
